target: T1, human Npt2a (Homo sapiens, UniProt Q06495); test: Npt2a activity cell based assay, membrane potential dye, CHO T-REx hNpt2a cells; settings: doxycycline-induced, depolarization by sodium phosphate influx, average or median values if tested more than once
T1 construct: expressed in transfected cells
T1 sequence (Q06495 1-639): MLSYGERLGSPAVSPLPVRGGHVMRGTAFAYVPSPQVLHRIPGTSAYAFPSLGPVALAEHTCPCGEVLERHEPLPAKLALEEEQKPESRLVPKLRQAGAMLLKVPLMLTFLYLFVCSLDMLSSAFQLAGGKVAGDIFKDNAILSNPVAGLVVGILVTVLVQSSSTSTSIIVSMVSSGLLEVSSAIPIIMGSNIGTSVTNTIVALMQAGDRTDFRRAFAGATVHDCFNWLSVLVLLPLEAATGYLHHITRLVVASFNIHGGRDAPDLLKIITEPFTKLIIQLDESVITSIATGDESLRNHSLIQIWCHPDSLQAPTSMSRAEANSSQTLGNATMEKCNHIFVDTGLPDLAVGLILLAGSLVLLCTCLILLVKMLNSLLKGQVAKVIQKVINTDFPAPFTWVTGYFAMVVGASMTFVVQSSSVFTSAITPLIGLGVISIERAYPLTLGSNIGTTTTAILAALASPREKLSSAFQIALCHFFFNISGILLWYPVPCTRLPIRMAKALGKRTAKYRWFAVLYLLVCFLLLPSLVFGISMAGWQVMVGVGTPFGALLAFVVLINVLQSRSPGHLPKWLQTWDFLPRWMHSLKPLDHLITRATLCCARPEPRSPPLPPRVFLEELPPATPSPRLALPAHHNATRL
Method in brief: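 Doxycycline-induced (0.5 μg/mL, 24 h) CHO T-REx cells were loaded with membrane potential dye in sodium-free NHE buffer (pH 7.4) and exposed to compound (50 μM–1 nM, 5 min, room temperature).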

**Q.** For `Cc1c(Nc2cc(-n3nc(C)c4ccncc43)ncn2)nn(C)c1-c1ccc(C#N)cc1` [Example 228, 4-(1,4-dimethyl-3-{[6-(3-methyl-1H-pyrazolo[3,4-c]pyridin-1-yl)pyrimidin-4-yl]amino}-1H-pyrazol-5-yl)benzonitrile], which IC50 is on record?
**A.** The IC50 was 210 nM.

**Q.** `COc1c(-c2ccc(C#N)cc2)nn(C)c1Nc1cc(-n2nc(C)cc2C(F)F)ncn1` [Example 411, 4-[5-({6-[5-(difluoromethyl)-3-methyl-1H-pyrazol-1-yl]pyrimidin-4-yl}amino)-4-methoxy-1-methyl-1H-pyrazol-3-yl]benzonitrile] was tested. Which IC50 did it give?
**A.** Its IC50 is 150 nM.

**Q.** Which IC50 does the source give for `CCc1c(Nc2cc(-n3cccn3)ncn2)nn(C)c1-c1ccc(F)cc1` [Example 245, N-[4-ethyl-5-(4-fluorophenyl)-1-methyl-1H-pyrazol-3-yl]-6-(1H-pyrazol-1-yl)pyrimidin-4-amine] here?
**A.** Its IC50 is 660 nM.

**Q.** Which IC50 does the source give for `CCc1c(-c2ccc(F)cc2)nn(CC(F)F)c1Nc1cc(-n2nc(C)cc2C)ncn1` [Example 162, N-[1-(2,2-difluoroethyl)-4-ethyl-3-(4-fluorophenyl)-1H-pyrazol-5-yl]-6-(3,5-dimethyl-1H-pyrazol-1-yl)pyrimidin-4-amine] here?
**A.** Its IC50 is 97 nM.

**Q.** How did the IC50 turn out when `Cc1ccc(-c2nn(CC3CC3)c(Nc3cc(-n4nc(C)c(C(C)(C)O)c4C)ncn3)c2C)cc1` [Example 389, 2-[1-(6-{[1-(cyclopropylmethyl)-4-methyl-3-(4-methylphenyl)-1H-pyrazol-5-yl]amino}pyrimidin-4-yl)-3,5-dimethyl-1H-pyrazol-4-yl]propan-2-ol] was run?
**A.** Its IC50 is 130 nM.

**Q.** With `COC(C)c1c(C)nn(-c2cc(Nc3c(C)c(-c4ccc(F)cc4)nn3CC3CC3)ncn2)c1C` (single isomer, unassigned) [Example 327, N-[1-(cyclopropylmethyl)-3-(4-fluorophenyl)-4-methyl-1H-pyrazol-5-yl]-6-{4-[1-methoxyethyl]-3,5-dimethyl-1H-pyrazol-1-yl}pyrimidin-4-amine] as the compound, how does the IC50 read?
**A.** The IC50 was 4 nM.

**Q.** With `Cc1nn(-c2cc(Nc3c(C)c(-c4ccc(C#N)cc4)nn3CC3CC3)ncn2)c(C(F)F)c1C(=O)OC(C)(C)C` [Example 192, tert-butyl 1-(6-{[3-(4-cyanophenyl)-1-(cyclopropylmethyl)-4-methyl-1H-pyrazol-5-yl]amino}pyrimidin-4-yl)-5-(difluoromethyl)-3-methyl-1H-pyrazole-4-carboxylate] as the compound, how does the IC50 read?
**A.** Its IC50 is 16 nM.

**Q.** Which IC50 does the source give for `CNC(=O)Oc1c(C)nn(-c2cc(Nc3c(C)c(-c4ccc(F)cc4)nn3CC3CC3)ncn2)c1C` [Example 519, 1-(6-{[1-(cyclopropylmethyl)-3-(4-fluorophenyl)-4-methyl-1H-pyrazol-5-yl]amino}pyrimidin-4-yl)-3,5-dimethyl-1H-pyrazol-4-yl methylcarbamate] here?
**A.** The IC50 was 230 nM.

**Q.** With `Cc1c(-c2ccc(F)cc2)nn(CC2CC2)c1Nc1cc(-n2nc3c(c2C)C(C)(O)CC3)ncn1` (racemic) [Example 404, (±)-2-(6-{[1-(cyclopropylmethyl)-3-(4-fluorophenyl)-4-methyl-1H-pyrazol-5-yl]amino}pyrimidin-4-yl)-3,4-dimethyl-2,4,5,6-tetrahydrocyclopenta[c]pyrazol-4-ol] as the compound, how does the IC50 read?
**A.** Its IC50 is 13 nM.

**Q.** Which IC50 does the source give for `CCOC(=O)c1c(C)nn(-c2cc(Nc3c(C)c(-c4ccc(F)cc4F)nn3CC3CC3)ncn2)c1C` [Example 364, ethyl 1-(6-{[1-(cyclopropylmethyl)-3-(2,4-difluorophenyl)-4-methyl-1H-pyrazol-5-yl]amino}pyrimidin-4-yl)-3,5-dimethyl-1H-pyrazole-4-carboxylate] here?
**A.** The IC50 was 5 nM.

**Q.** For `COc1c(-c2ccc(C#N)cc2)nn(C)c1Nc1cc(-n2nc(C)c(CC(C)(C)O)c2C)ncn1` [Example 428, 4-[5-({6-[4-(2-hydroxy-2-methylpropyl)-3,5-dimethyl-1H-pyrazol-1-yl]pyrimidin-4-yl}amino)-4-methoxy-1-methyl-1H-pyrazol-3-yl]benzonitrile], which IC50 is on record?
**A.** The IC50 was 550 nM.

**Q.** For `CCc1c(Nc2cc(-n3nc(C)c(C(=O)N4CC(F)C4)c3C)ncn2)nn(C)c1-c1ccc(F)cc1` [Example 126, [1-(6-{[4-ethyl-5-(4-fluorophenyl)-1-methyl-1H-pyrazol-3-yl]amino}pyrimidin-4-yl)-3,5-dimethyl-1H-pyrazol-4-yl](3-fluoroazetidin-1-yl)methanone], which IC50 is on record?
**A.** Its IC50 is 975 nM.

**Q.** For `Cc1nn(-c2cc(Nc3c(C)c(-c4ccc(F)cc4)nn3CC3CC3)ncn2)c(C)c1OCC#N` [Example 506, {[1-(6-{[1-(cyclopropylmethyl)-3-(4-fluorophenyl)-4-methyl-1H-pyrazol-5-yl]amino}pyrimidin-4-yl)-3,5-dimethyl-1H-pyrazol-4-yl]oxy}acetonitrile], which IC50 is on record?
**A.** The IC50 was 28 nM.

**Q.** Which IC50 does the source give for `Cc1nn(-c2cc(Nc3c(C)c(-c4ccc(F)cc4)nn3CC3CC3)ncn2)c(C)c1C(C)O` (single isomer, unassigned) [Example 330, 1-[1-(6-{[1-(cyclopropylmethyl)-3-(4-fluorophenyl)-4-methyl-1H-pyrazol-5-yl]amino}pyrimidin-4-yl)-3,5-dimethyl-1H-pyrazol-4-yl]ethanol] here?
**A.** Its IC50 is 22 nM.

**Q.** For `CC(=O)c1c(C)nn(-c2cc(Nc3c(C)nn(-c4ccc(C#N)cc4)c3C)ncn2)c1C` [Example 451, 4-(4-{[6-(4-acetyl-3,5-dimethyl-1H-pyrazol-1-yl)pyrimidin-4-yl]amino}-3,5-dimethyl-1H-pyrazol-1-yl)benzonitrile], which IC50 is on record?
**A.** Its IC50 is 78 nM.

**Q.** For `CCOc1ccc(-c2n[nH]c(Nc3cc(-n4nc(C)cc4C)ncn3)c2Cl)cc1` [Example 39, N-[4-chloro-3-(4-ethoxyphenyl)-1H-pyrazol-5-yl]-6-(3,5-dimethyl-1H-pyrazol-1-yl)pyrimidin-4-amine], which IC50 is on record?
**A.** The IC50 was 3.2 nM.

**Q.** How did the IC50 turn out when `Cc1nn(-c2cc(Nc3nn(C)c(-c4ccc(F)cc4)c3Cl)ncn2)c2ccccc12` [Example 110, N-[4-chloro-5-(4-fluorophenyl)-1-methyl-1H-pyrazol-3-yl]-6-(3-methyl-1H-indazol-1-yl)pyrimidin-4-amine] was run?
**A.** Its IC50 is 22 nM.

**Q.** For `CCOC(=O)c1c(C)nn(-c2cc(Nc3c(C)c(-c4ccc(F)cc4)nn3CC3CC3)ncn2)c1C` [Example 152, ethyl 1-(6-{[1-(cyclopropylmethyl)-3-(4-fluorophenyl)-4-methyl-1H-pyrazol-5-yl]amino}pyrimidin-4-yl)-3,5-dimethyl-1H-pyrazole-4-carboxylate], which IC50 is on record?
**A.** The IC50 was 6 nM.

**Q.** How did the IC50 turn out when `Cc1nn(-c2cc(Nc3c(C)c(-c4ccc(F)cc4)nn3CC3CC3)ncn2)c(C)c1C1(C(F)(F)F)OCCO1` [Example 517, N-[1-(cyclopropylmethyl)-3-(4-fluorophenyl)-4-methyl-1H-pyrazol-5-yl]-6-{3,5-dimethyl-4-[2-(trifluoromethyl)-1,3-dioxolan-2-yl]-1H-pyrazol-1-yl}pyrimidin-4-amine] was run?
**A.** The IC50 was 29 nM.

**Q.** How did the IC50 turn out when `Cc1nn(-c2cc(Nc3c(Cl)c(-c4ccccc4)nn3C)ncn2)c(C)c1Cl` [Example 80, 6-(4-chloro-3,5-dimethyl-1H-pyrazol-1-yl)-N-(4-chloro-1-methyl-3-phenyl-1H-pyrazol-5-yl)pyrimidin-4-amine] was run?
**A.** The IC50 was 44 nM.

**Q.** Which IC50 does the source give for `CCc1c(-c2ccc(C#N)cc2)nn(C)c1Nc1cc(-n2nc(C)cc2C)ncn1` [Example 209, 4-(5-{[6-(3,5-dimethyl-1H-pyrazol-1-yl)pyrimidin-4-yl]amino}-4-ethyl-1-methyl-1H-pyrazol-3-yl)benzonitrile] here?
**A.** The IC50 was 18 nM.

**Q.** `Cc1nn(-c2cc(Nc3c(C)c(-c4ccc(C(F)(F)F)cc4)nn3C)ncn2)c(C)c1C(C)(C)O` [Example 379, 2-{1-[6-({1,4-dimethyl-3-[4-(trifluoromethyl)phenyl]-1H-pyrazol-5-yl}amino)pyrimidin-4-yl]-3,5-dimethyl-1H-pyrazol-4-yl}propan-2-ol] was tested. Which IC50 did it give?
**A.** Its IC50 is 880 nM.

**Q.** For `Cc1cc(C)n(-c2cc(Nc3nn(CC(F)F)c(-c4ccc(F)cc4)c3Cl)ncn2)n1` [Example 132, N-[4-chloro-1-(2,2-difluoroethyl)-5-(4-fluorophenyl)-1H-pyrazol-3-yl]-6-(3,5-dimethyl-1H-pyrazol-1-yl)pyrimidin-4-amine], which IC50 is on record?
**A.** Its IC50 is 39 nM.

**Q.** `Cc1nn(-c2cc(Nc3nn(C)c(-c4ccc(F)cc4)c3Cl)ncn2)c(C(C)(C)O)c1Cl` [Example 304, 2-[4-chloro-1-(6-{[4-chloro-5-(4-fluorophenyl)-1-methyl-1H-pyrazol-3-yl]amino}pyrimidin-4-yl)-3-methyl-1H-pyrazol-5-yl]propan-2-ol] was tested. Which IC50 did it give?
**A.** The IC50 was 6 nM.

**Q.** Which IC50 does the source give for `Cc1cc(C)n(-c2cc(Nc3c(C)c(-c4ccc(F)cn4)nn3CC3CC3)ncn2)n1` [Example 421, N-[1-(cyclopropylmethyl)-3-(5-fluoropyridin-2-yl)-4-methyl-1H-pyrazol-5-yl]-6-(3,5-dimethyl-1H-pyrazol-1-yl)pyrimidin-4-amine] here?
**A.** The IC50 was 410 nM.

**Q.** How did the IC50 turn out when `Cc1c(-c2ccc(C#N)cc2)nn(CC2CC2)c1Nc1cc(-n2cc(C(F)(F)F)cn2)ncn1` [Example 247, 4-[1-(cyclopropylmethyl)-4-methyl-5-({6-[4-(trifluoromethyl)-1H-pyrazol-1-yl]pyrimidin-4-yl}amino)-1H-pyrazol-3-yl]benzonitrile] was run?
**A.** The IC50 was 29 nM.

**Q.** With `CCOC(=O)c1c(C)nn(-c2cc(Nc3c(CC)c(-c4ccc(F)cc4)nn3CC3CC3)ncn2)c1C` [Example 147, ethyl 1-(6-{[1-(cyclopropylmethyl)-4-ethyl-3-(4-fluorophenyl)-1H-pyrazol-5-yl]amino}pyrimidin-4-yl)-3,5-dimethyl-1H-pyrazole-4-carboxylate] as the compound, how does the IC50 read?
**A.** The IC50 was 3 nM.
